# From patent publication US20120204273A1, “COMPOSITIONS RELATING TO A PHOSPHOPROTEIN AND METHODS OF USE” (SANFORD-BURNHAM MEDICAL RESEARCH INSTITUTE, priority 2010, published 2012)
# Tested on: CDP138
# Experiment: SILAC quantitative phosphoproteomics with PAS antibody immunoprecipitation in 3T3-L1 adipocytes
# Assay type: cell-based, mouse
# Details: insulin-stimulated adipocytes
# Method: Preparation of the Triple-Labeling SILAC Media. Arginine- and lysine-free DMEM was divided into three equal portions and 28 mg/liter of the three Arginine isotopes were added separately to make the Arg-0, Arg-6, and Arg-10 media, respectively. In addition, 48.7 mg/liter L-lysine, L-lysine-D4, and L-lysine13C6, 15N2 were supplemented separately to the three lots containing Arg-0, Arg-6, and Arg-10. Finally, glutamine and antibiotics were added to the media together with the full complement of amino acids (Arg-0/Lys-H4, Arg-6/Lys-D4, and Arg-10/Lys-8) and then sterile-filtered (Millipore). The sterile media were separated into two portions for dialyzed serum-containing and serum free media.
# Mass Spectrometric Analysis. For SILAC quantitative proteomic study, the mixture of total lysates from the 3 different groups (as shown in FIG. 1A) was used for immunoprecipitation with PAS antibodies. Enriched proteins were resolved by SDS-PAGE. […] Only proteins that had at least 2 ion scores >20 were identified and quantified. MaxQuant was used to verify and quantify the resulting peptide pairs.
# Identification of CDP138 as a novel Akt2 substrate using SILAC-based quantitative proteomics. […] The tryptic peptides were subsequently analyzed by tandem mass spectrometry (MS). […]
substance,measurement,value
insulin,enrichment of CDP138 in PAS immunoprecipitate,2.8 fold
